Data on three molecules can be found in patent publication US8999942B2, “Polyol modified aminoglycoside-lipid conjugates” (University of Manitoba, priority 2010, dated 2015).

Bounds are passed on as bounds.

The subject of test [1] is S. aureus ATCC 29213. The test can be described thus: MIC, broth macrodilution (CLSI), S. aureus ATCC 29213. It counts as cell-based, Staphylococcus aureus. Here is the method: (§1) All compounds were tested against American Type Culture Collection (ATCC) reference strains as well as clinical isolates from the Canadian Intensive Care Unit (CAN-ICU) study (Zhanel, et al., 2008). […] Antibacterial activity against Gram-positive and Gram-negative microorganisms was performed via broth macrodilution tests using CLSI methodology (Clinical and Laboratory Standards Institute, 2006). The minimum inhibitory concentration (MIC) in μg/mL of the aminoglycoside-derived amphiphilic polycarbamates and polyethers were determined using established methods (Clinical and Laboratory Standards Institute, 2006) and are shown in Tables 1 and 2, respectively.

In test [2] the test system is methicillin-resistant Staphylococcus aureus (MRSA) ATCC 33592. The test can be described thus: MIC, broth macrodilution (CLSI), MRSA ATCC 33592. In kind it is cell-based. The settings on record: MRSA, methicillin-resistant S. aureus ATCC 33592. Here is the method:
as §1

Test [3] concerns S. epidermidis ATCC 14990. Description: MIC, broth macrodilution (CLSI), S. epidermidis. The settings on record: footnote ATCC 1490. It counts as cell-based, Staphylococcus epidermidis. The method, then:
as §1

Test [4] relates to methicillin-resistant Staphylococcus epidermidis (MRSE) CAN-ICU 61589. The test can be described thus: MIC, broth macrodilution (CLSI), MRSE. It counts as cell-based. Particulars: methicillin-resistant S. epidermidis, footnote (ATCC 14990). The method, then:
as §1

Test [5] has as its system Streptococcus pneumoniae ATCC 49619. Description: MIC, broth macrodilution (CLSI), S. pneumoniae ATCC 49619. It counts as cell-based. The method, then:
as §1

The test system of test [6] is E. coli ATCC 25922. The test can be described thus: MIC, broth macrodilution (CLSI), E. coli ATCC 25922. In kind it is cell-based. Here is the method:
as §1

Test [7] relates to E. coli (Gentamicin-resistant) CAN-ICU 61714. Description: MIC, broth macrodilution (CLSI), gentamicin-resistant E. coli. It counts as cell-based. Particulars: footnote ATCC 6174 (gentamicin resistant). The method, then:
as §1

Test [8] concerns E. coli (Amikacin MIC 32) CAN-ICU 63074. The test can be described thus: MIC, broth macrodilution (CLSI), E. coli CAN-ICU 63074. In kind it is cell-based. Here is the method: as §1
Test [9] deals with Pseudomonas aeruginosa ATCC 27853. Description: MIC, broth macrodilution (CLSI), P. aeruginosa ATCC 27853. In kind it is cell-based. Here is the method:
as §1

In test [10] the test system is P. aeruginosa (Gent-R) CAN-ICU 62308. The test can be described thus: MIC, broth macrodilution (CLSI), P. aeruginosa CAN-ICU 62308. It counts as cell-based, Pseudomonas aeruginosa. The method, then:
as §1

Test [11] concerns Stenotrophomonas maltophilia (CAN-ICU 62585). Description: MIC, broth macrodilution (CLSI), S. maltophilia. It counts as cell-based. Particulars: S. maltophilia, footnote CAN-ICU 62584. The method, then:
as §1

The test system of test [12] is Acinetobacter baumanni (CAN-ICU 63169). The test can be described thus: MIC, broth macrodilution (CLSI), A. baumannii. It counts as cell-based. The settings on record: A. baumannii CAN-ICU 63169. The method, then:
as §1

Test [13] relates to S. pneumoniae ATCC 13883. The test can be described thus: MIC, broth macrodilution (CLSI), S. pneumoniae ATCC 13883. In kind it is cell-based. The method, then: as §1

As to `CN(C)c1ccc(NC(=O)OCC2OC(OC3C(N)CC(N)C(OC4OC(CN)C(OC(=O)Nc5ccc(N(C)C)cc5)C(OC(=O)Nc5ccc(N(C)C)cc5)C4OC(=O)Nc4ccc(N(C)C)cc4)C3OC(=O)Nc3ccc(N(C)C)cc3)C(OC(=O)Nc3ccc(N(C)C)cc3)C(N)C2OC(=O)Nc2ccc(N(C)C)cc2)cc1.O=C(O)C(F)(F)F.O=C(O)C(F)(F)F.O=C(O)C(F)(F)F.O=C(O)C(F)(F)F.O=C(O)C(F)(F)F.O=C(O)C(F)(F)F.O=C(O)C(F)(F)F.O=C(O)C(F)(F)F.O=C(O)C(F)(F)F.O=C(O)C(F)(F)F.O=C(O)C(F)(F)F` (stereo not drawn) [Compound 7], the “Minimal Inhibitory Concentration (MIC)” value in test [1] is 16 µg/mL; in [2], 32 µg/mL; in test [3], 16 µg/mL; in test [4], 32 µg/mL; in [5] it was greater than 256 µg/mL; in test [6], 256 µg/mL. Further, the “Minimal Inhibitory Concentration (MIC)” value in [7] is 256 µg/mL; in [8], 256 µg/mL; in test [9], greater than 256 µg/mL; in test [10], 256 µg/mL; in test [11], greater than 256 µg/mL; in [12], greater than 256 µg/mL. Besides, the “Minimal Inhibitory Concentration (MIC)” value in test [13] is greater than 256 µg/mL.
Consider `NCCC(OC(=O)Nc1ccccc1)C(=O)NC1CC(N)C(OC2OC(CN)C(OC(=O)Nc3ccccc3)C(OC(=O)Nc3ccccc3)C2OC(=O)Nc2ccccc2)C(OC(=O)Nc2ccccc2)C1OC1OC(COC(=O)Nc2ccccc2)C(OC(=O)Nc2ccccc2)C(N)C1OC(=O)Nc1ccccc1.O=C(O)C(F)(F)F.O=C(O)C(F)(F)F.O=C(O)C(F)(F)F.O=C(O)C(F)(F)F` (stereo not drawn) [Compound 8], for which the “Minimal Inhibitory Concentration (MIC)” value in [1] was 8 µg/mL; in test [2] it was 16 µg/mL; in test [3], 2 µg/mL; in test [4] it was 2 µg/mL; in test [5], 32 µg/mL; in test [6], 256 µg/mL. Further, the “Minimal Inhibitory Concentration (MIC)” value was 256 µg/mL in test [7]; 256 µg/mL in test [8]; greater than 256 µg/mL in test [9]; 256 µg/mL in test [10]; 128 µg/mL in test [11]; 256 µg/mL in [12]. For the same molecule, in test [13], the “Minimal Inhibitory Concentration (MIC)” value came out at 256 µg/mL.
For the molecule `NCC1OC(OC2C(N)CC(N)C(OC(=O)Nc3ccccc3)C2OC(=O)Nc2ccccc2)C(N)C(OC(=O)Nc2ccccc2)C1OC(=O)Nc1ccccc1.O=C(O)C(F)(F)F.O=C(O)C(F)(F)F.O=C(O)C(F)(F)F.O=C(O)C(F)(F)F` (stereo not drawn) [Compound 10], the “Minimal Inhibitory Concentration (MIC)” value in test [1] was 16 µg/mL; in [2] it was 16 µg/mL; in [3] it was 8 µg/mL; in [4], 8 µg/mL; in [5], greater than 256 µg/mL; in test [6], 32 µg/mL. The “Minimal Inhibitory Concentration (MIC)” value is 32 µg/mL in [7]; 32 µg/mL in test [8]; 128 µg/mL in test [9]; 128 µg/mL in test [10]; 64 µg/mL in [11]; 256 µg/mL in test [12]. For the same molecule, the “Minimal Inhibitory Concentration (MIC)” value in test [13] stood at 64 µg/mL.
